Measured values taken from US12685775B2, “Oligonucleotides with nucleoside analogs” (Sirnaomics, Inc., priority 2019, dated 2026).
Entries after “also recorded” stand apart in the source; their conditions may differ. Like-named read-outs stand apart in the source and are kept apart here. Blank lines part the entries; values can stand above or below the molecule they belong to.

Legend:
Type in all cases: cell-based
BxPC3 cells [1] = assay: BxPC3 cell viability 96 h after transfection/treatment, Cell Titer Glo (Examples 2 and 3); settings: for inhibition in cell viability at 0.1 nM: BxPC3, 0.1 nM, GEM-modified siRNAs; for IC50: read-out: IC50, inhibition of cell viability
Description: (§1) Pancreatic cancer BxPC3 cells were seeded at 1000 cells/ml and grown as monolayers in 384 well plates. The cells were transfected with the siRNAs indicated against CHK1 or Rad17 using Lipofectamine (ThermoFisher) or were treated with gemcitabine at the concentrations indicated on the X axis. After a 96 h incubation at 37° C. with 5% CO2, cell viability was determined using Cell Titer Glo (Perkin Elmer) by monitoring the luminescence signal produced by the reagent in a Perkin Elmer Envision plate reader equipped with Ultrasensitive luminescence detection optics. From the figure we can see that gemcitabine (GEM) produces a dose-dependent inhibition of cell viability with an IC50 of ~6 nM and maximal efficacy of >80% cell killing. A 25mer blunt ended siRNA against RAD17 produced a dose dependent inhibition in cell viability with a maximum efficacy at only 60% reduction in cell viability and an IC50 of ~5 nM. […] The IC50 for the latter siRNA was similar to that for the Azorsa sequence (~0.3 nM).
SiRNAs were synthesized with gemcitabine nucleotide amidites added at the 3′ end of each of the Sense strands for the siRNA sequences indicated. SiRNAs were transfected into the cells and incubated as detailed in FIG. 1. Maximal efficacy of all sequences was now improved to >95% inhibition of cell viability at concentrations above 10 nM. […] The gemcitabine nucleotides was examined to see if it could replace the Cytidine nucleotides within the siRNA sequence. […] FIGS. 12a-12d show the effect of adding 2 gemcitabine nucleotides at the 3′ end of the Sense strand of each siRNA on potency and efficacy.

[2] = test system: BxPC3 pancreatic cancer cell; assay: cells; settings: for IC50: BxPC3, 120 h exposure, read-out: IC50, cell viability
Description: The siRNA sequences shown in Table 2 were tested for efficacy and potency against BxPC3 pancreatic cancer cell viability after 120 h exposure.

MiaPaca-2 = MiaPaca-2 cell viability, 96 h exposure (Examples 8 and 9); settings: for maximal inhibition of cell viability: 96 h
Description: as §1
Using gemcitabine or the same unmodified siRNAs and exposure time (96 h) as used against BxPC3 cells (FIG. 1), we studied the effect on another pancreatic cancer cell line—MiaPaca-2.

BxPC3 cells [3] = assay: BxPC3 cell viability after 72 hrs treatment, CTG2 reagent (Example 1); settings: Homo sapiens, BXPC-3, BxPC3, 72 h
Description: BxPC3 cells were seeded in two 384-well plates at 500 cells/well. On the next day cells were treated with various concentrations of CID2A, CID2S, CID4 siRNAs (formulated with Lipofectamine RNAiMAX) or gemcitabine (0.1-1000 nM) for 72 hrs. After incubation at 37° C. for 72 hrs, the number of viable cells was assessed using CTG2 reagent. Non-treated cells were set as 100%.

BxPC3 cells [4] = assay: BxPC3 cell viability after 120 h exposure, Cell Titer Glo (Example 4, polyGEM constructs)
Description: BxPC3 cells seeded in 384 well plates at 1000 cells/well were transfected with siRNA constructs or exposed to gemcitabine at the concentrations indicated in the figure. The samples tested were gemcitabine alone (GEM), the unmodified 19mer siRNA against CHK1 (CHK-AZ) and the same sequences of the siRNA but with either 2 (poly-2), 4 (poly-4) or 6 (poly-6) gemcitabine nucleotides added at the 3′ end of the Sense strand prior to annealing with the same antisense strand. After 120 h exposure to the various agents, the cell viability was determined by addition of Cell Titer Glo (PE), plates were shaken for 10-20 mins and then luminescence signal correlating with cell viability was determined in a PE Envision plate reader.
It was reasoned that, since such an improvement in efficacy against pancreatic cancer cell viability was obtained when adding 2 GEM nucleotides onto the SS of an siRNA, then adding additional GEMs would further improve the efficacy and/or potency of the siRNAs. To this end the unmodified 19mer siRNA (CHK-AZ) was compared with the same sequence where 2Gems were added at the 3′ end of the SS (poly-2), 4GEMs were added (poly-4) or 6 GEMs were added (poly-6). These sequences were compared with gemcitabine alone (GEM). The experiment was performed by transfection of the siRNAs in BxPC3 cells as for FIG. 1 but the exposure time prior to measurement of cell viability was 120 h. […]

BxPC3 cells [5] = assay: Screen of siRNA sequences designed against CHK1: % viable cells 72 h after transfection, BxPC3
Description: (§2) The percentage of viable cells 72 h after transfection of the siRNA sequences into cells in culture is shown (top panel—BxPC3 cells; lower panel—CFPAC cells). 100% viability is defined as that in the presence of a NON-silencing control siRNA (NS). CHK1_AZ (AZ) was tested as a comparator. CD=Cell Death siRNAs—known to produce maximal killing of many cell types when transfected into cells.

CFPAC cells = assay: Screen of siRNA sequences designed against CHK1: % viable cells 72 h after transfection, CFPAC
Description: as §2

CHK1 = assay: siRNA validation of target silencing (qRTPCR); settings: previous studies
Description: These experiments were performed using the siRNAs shown below. The degree of gene target silencing was measured in cells transfected with the siRNAs at (50 nM) and the degree of gene silencing was measured using qRTPCR (using Beta-actin as a control housekeeping gene for normalization of the data).

Molecule: SLP49-2: 25mer CHK1 siRNA with 2 GEMs attached at the 3′ end of the Sense Strand (SEQ ID NO: 19) (sense CCUGUGGAAUAGUACUUACUGCAAUCC; antisense AUUGCAGUAAGUACUAUUCCACAGG; 25mer siRNA, two gemcitabine nucleotides added at sense strand 3' end, further chemistry not given here)
inhibition in cell viability at 0.1 nM (BxPC3 cells [1]): 31%
efficacy (inhibition of cell viability / cell killing) at 30 nM [2]: ~ 100%
maximal inhibition at 10 nM (MiaPaca-2; 10 nM): ~ 100%

IC50 (BxPC3 cells [3]; no Lipofectamine, read-out: IC50, reduction in cell viability): ~7 nM
IC50 (BxPC3 cells [1]; Homo sapiens, BXPC-3, BxPC3, 96 h): ~6 nM
IC50 (BxPC3 cells [4]; Homo sapiens, BXPC-3, BxPC3, 120 h exposure): 3 nM
IC50 ([2]; Homo sapiens, BXPC-3): ~5 nM
Molecule: Nc1ccn([C@@H]2O[C@H](CO)[C@@H](O)C2(F)F)c(=O)n1 [gemcitabine, 2′,2′-difluoro 2′-deoxycytidine, reference compound]
viability at 0.05 µM (BxPC3 cells [3]; 50 nM): 26%
maximal efficacy (reduction/inhibition of cell viability, cell killing) (BxPC3 cells [1]; BxPC3, 96 h): > 80%
reduction in cell viability at concentrations above 50 nM (BxPC3 cells [4]; BxPC3, 120 h, >50 nM): 100%
maximal efficacy, inhibition of cell viability ([2]; human, 120 h, 100 nM): ~ 85%
inhibition at 0.1 µM (MiaPaca-2; Homo sapiens, MIA PaCa-2, 100 nM, read-out: maximal inhibition at 100 nM): 90%

Molecule: CHK_4: siRNA designed against CHK1, sense strand CCTGTGGAATAGTACTTACTGCAAT (SEQ ID NO: 9); same sequence as SLP49-1 (antisense strand not cited, further chemistry not given here)
potency on BxPC3 cell viability (BxPC3 cells [5]): most potent effect; also recorded: greater potency than CHK-AZ
% viable BxPC3 cells at 72 h (BxPC3 cells [5]; 100% = non-silencing control siRNA): 24%
potency on BxPC3 cell viability (BxPC3 cells [5]; listed as #4): #4 sequence CCTGTGGAATAGTACTTACTGCAAT (SEQ ID NO: 9) seemed to be the best.
effect on CFPAC cell viability (CFPAC cells): very pronounced effect on cell viability
silencing of CHK1 gene (CHK1): better silencing than the Azorsa sequence

Molecule: SLP49-1: Unmodified 25mer blunt ended CHK1 siRNA, sense CCUGUGGAAUAGUACUUACUGCAAU (SEQ ID NO: 18) (antisense AUUGCAGUAAGUACUAUUCCACAGG; unmodified RNA)
inhibition of cell viability at 100 nM (BxPC3 cells [1]; BxPC3, 96 h, 100 nM): ~ 90%
IC50 (BxPC3 cells [1]; BxPC3, 96 h): ~0.3 nM
Efficacy at 100 nM ([2]; BxPC3, 120 h, 100 nM): 90%
IC50 [2]: 0.25 nM
maximal inhibition of cell viability (MiaPaca-2; listed as 25mer blunt ended siRNA designed against CHK1): ~ 80%
maximal inhibition of cell viability (MiaPaca-2; listed as Chk1_de): 80%

Molecule: SLP49-3: Unlabeled 25mer blunt ended siRNA against RAD17, sense CCAACAAUUAUGAUGAAAUUUCUUA (SEQ ID NO: 23) (antisense UAAGAAAUUUCAUCAUAAUUGUUGG; further chemistry not given here)
maximal efficacy (reduction/inhibition of cell viability, cell killing) (BxPC3 cells [1]; BxPC3, 96 h): 60%
maximal efficacy (reduction/inhibition of cell viability, cell killing) (BxPC3 cells [1]; BxPC3, 96 h, listed as RAD17 siRNA): ~ 60%
IC50 (BxPC3 cells [1]; BxPC3, 96 h): ~5 nM
maximal efficacy, inhibition of cell viability [2]: 60%
IC50 [2]: ~4 nM
maximal inhibition of cell viability (MiaPaca-2; listed as RAD17 siRNA): ~ 30%
maximal inhibition of cell viability (MiaPaca-2; listed as unmodified 25mer siRNA targeting RAD17): ~ 25%

Molecule: SLP49-6: CHK1 siRNA, SS shortened by first 2 bases, containing 2 Gems (SEQ ID NO: 21) (sense UGUGGAAUAGUACUUACUGCAAUCC; antisense AUUGCAGUAAGUACUAUUCCACAGG; sense strand contains two gemcitabines, positions not given here, further chemistry not given here)
efficacy (inhibition of cell viability / cell killing) at 30 nM [2]: 83-97%
IC50 [2]: ~3 nM

Molecule: SLP49-5: CHK1 siRNA, SS shortened by first 2 bases, 3 GEMs in place of Cs (SEQ ID NO: 20) (sense UGUGGAAUAGUACUUACUGCAAU; antisense AUUGCAGUAAGUACUAUUCCACAGG; three gemcitabines replace cytidines in sense strand, positions not given here)
efficacy (inhibition of cell viability / cell killing) at 30 nM [2]: 83-97%
IC50 [2]: ~3 nM

Molecule: SLP49-4: RAD17 25mer siRNA with 2 additional GEMs attached at the 3′ end of the SS (SEQ ID NO: 24) (sense CCAACAAUUAUGAUGAAAUUUCUUACC; antisense UAAGAAAUUUCAUCAUAAUUGUUGG; 25mer siRNA, two gemcitabine nucleotides added at sense strand 3' end, further chemistry not given here)
inhibition in cell viability at 0.1 nM (BxPC3 cells [1]): no effect on cell viability
efficacy (inhibition of cell viability / cell killing) at 30 nM [2]: 100%
IC50 [2]: ~4 nM
inhibition at 30 nM (MiaPaca-2; 30 nM): 93%
